Here are results for two molecules from publication PMC7881240, “Calmodulin regulates the olfactory performance in Drosophila melanogaster” (Scientific Reports, 2021).

The target in one assay is T1, Or22a (Drosophila melanogaster, UniProt P81909).
T1 construct: Or22a/OrcoWT in Or22a-expressing olfactory sensory neurons, ex vivo antenna; with Orco
T1 sequence (P81909 1-397): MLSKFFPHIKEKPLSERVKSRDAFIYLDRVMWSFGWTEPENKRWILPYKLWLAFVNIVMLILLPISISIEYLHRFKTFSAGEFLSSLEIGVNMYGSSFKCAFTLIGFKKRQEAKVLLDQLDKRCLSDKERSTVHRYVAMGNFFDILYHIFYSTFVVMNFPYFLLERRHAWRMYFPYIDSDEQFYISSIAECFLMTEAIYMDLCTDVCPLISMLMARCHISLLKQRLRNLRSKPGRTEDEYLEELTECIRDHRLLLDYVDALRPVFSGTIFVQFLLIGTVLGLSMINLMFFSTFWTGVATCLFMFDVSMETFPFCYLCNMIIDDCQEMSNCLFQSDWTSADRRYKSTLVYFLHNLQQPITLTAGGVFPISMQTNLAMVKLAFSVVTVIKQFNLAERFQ
T1 sequence (Q9VNB5 1-486 partner): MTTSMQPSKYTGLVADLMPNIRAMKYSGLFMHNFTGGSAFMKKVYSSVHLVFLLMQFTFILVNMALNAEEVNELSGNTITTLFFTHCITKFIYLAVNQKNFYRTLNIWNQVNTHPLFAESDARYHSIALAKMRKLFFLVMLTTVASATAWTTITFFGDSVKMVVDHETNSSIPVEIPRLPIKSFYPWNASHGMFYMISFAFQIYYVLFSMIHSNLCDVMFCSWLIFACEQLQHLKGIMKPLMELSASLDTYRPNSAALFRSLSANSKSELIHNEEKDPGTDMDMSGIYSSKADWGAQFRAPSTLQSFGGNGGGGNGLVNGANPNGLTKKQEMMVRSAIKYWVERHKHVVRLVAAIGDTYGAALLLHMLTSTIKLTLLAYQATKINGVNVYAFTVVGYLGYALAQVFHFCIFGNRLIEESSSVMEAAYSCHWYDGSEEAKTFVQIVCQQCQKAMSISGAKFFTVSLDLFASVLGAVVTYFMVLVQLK
Kind of assay: GCaMP6f Ca2+ imaging of Or22a OSNs, concentration-response.

Assay [1] has as its target T2, Orco (Drosophila melanogaster, UniProt Q9VNB5).
T2 construct: native OrX/OrcoWT in olfactory sensory neurons, ex vivo antenna; with OrX
T2 sequence (Q9VNB5 1-486): T1 sequence (Q9VNB5 1-486 partner)
Kind of assay: GCaMP6f Ca2+ imaging of OSNs, concentration-response.

Assay [2] has as its target T3, Orco (Drosophila melanogaster, UniProt Q9VNB5, K339N).
T3 construct: OrX/OrcoK339N in olfactory sensory neurons (Orco1 null background), ex vivo antenna; with OrX
The assay is described as above.

T3 sequence (Q9VNB5 whole entry K339N): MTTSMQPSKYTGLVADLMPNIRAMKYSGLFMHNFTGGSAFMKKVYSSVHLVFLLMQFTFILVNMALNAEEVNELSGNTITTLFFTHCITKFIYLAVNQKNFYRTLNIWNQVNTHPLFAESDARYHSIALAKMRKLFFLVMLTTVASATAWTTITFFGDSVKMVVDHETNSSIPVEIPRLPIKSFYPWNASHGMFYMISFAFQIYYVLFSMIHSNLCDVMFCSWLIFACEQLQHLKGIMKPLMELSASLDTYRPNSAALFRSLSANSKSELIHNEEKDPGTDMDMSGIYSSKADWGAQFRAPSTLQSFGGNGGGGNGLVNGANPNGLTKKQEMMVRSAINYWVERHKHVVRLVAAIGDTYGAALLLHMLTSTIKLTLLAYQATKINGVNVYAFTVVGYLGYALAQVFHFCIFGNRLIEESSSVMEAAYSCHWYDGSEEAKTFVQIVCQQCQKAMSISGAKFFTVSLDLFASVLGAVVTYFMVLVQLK

One may read the EC50 as the concentration that produces a half-maximal response. `CCCCCC(=O)OCC` [ethyl hexanoate] gave an EC50 on Or22a of 13 µM.

As to `CCc1ccc(NC(=O)CSc2nnc(-c3cccnc3)n2CC)cc1` [VUAA1, 2-(4-Ethyl-5-(pyridin-3-yl)-4H-1,2,4-triazol-3-ylthio)-N-(4-ethylphenyl) acetamide], the EC50 stood at 88 µM on Orco [1] and 85 µM at Orco [2].
